According to patent US20250381179A1, “CHROMAN-BASED COMPOUNDS FOR TREATING CANCER” (priority 2024, published 2025):

Experiment: Phase 1 study: safety and tolerability (TEAEs, NCI CTCAE v5.0)
Method: The study employed an open-label, 3+3 design, with the option of adding backfill patients to each cohort cleared and deemed safe. […] Tumor responses were assessed every 2 cycles using RECIST v1.1 criteria. […] The study also involves an ongoing dose escalation study where participants receive 100 mg, 200 mg, 300 mg, 400 mg, and 600 mg once daily (QD) dose levels.
Safety was assessed through the analysis of the reported incidence of treatment-emergent AEs. Treatment-emergent AEs are those with an onset on or after the initiation of therapy and will be graded according to NCI CTCAE Version 5.0. Other safety endpoints, including laboratory results, vital signs, and ECG findings, were summarized for all patients in the Safety set.

## O=C1CC[C@H](N2Cc3cc(N4CCN(CC5CCN(c6ccc([C@@H]7c8ccc(O)cc8OC[C@@H]7c7ccccc7)cc6F)CC5)CC4)ccc3C2=O)C(=O)N1 [compound (1-g), (S)-3-(5-(4-((1-(2-fluoro-4-((3S,4R)-7-hydroxy-3-phenylchroman-4-yl)phenyl)piperidin-4-yl)methyl)piperazin-1-yl)-1-oxoisoindolin-2-yl)piperidine-2,6-dione]
100 mg QD (N = 4)
  Patients with Any Compound (1-g) related TEAE: 2 (50.0) n (%)
  Patients with Any TEAE: 4 (100) n (%)
  TEAE: Abdominal Distension: 0 n (%)
  TEAE: Abdominal Pain: 1 (25.0) n (%)
  TEAE: Acute Kidney Injury: 0 n (%)
  TEAE: Adrenal Insufficiency: 0 n (%)
  TEAE: Alopecia: 0 n (%)
  TEAE: Anaemia: 0 n (%)
  TEAE: Anxiety: 0 n (%)
  TEAE: Arthralgia: 0 n (%)
  TEAE: Axillary Vein Thrombosis: 0 n (%)
  TEAE: Back Pain: 0 n (%)
  TEAE: Basal Cell Carcinoma: 1 (25.0) n (%)
  TEAE: Breast Pain: 0 n (%)
  TEAE: Confusional State: 1 (25.0) n (%)
  TEAE: Constipation: 0 n (%)
  TEAE: Cough: 0 n (%)
  TEAE: Covid-19 Pneumonia: 1 (25.0) n (%)
  TEAE: Dehydration: 3 (75.0) n (%)
  TEAE: Diarrhoea: 1 (25.0) n (%)
  TEAE: Dizziness: 0 n (%)
  TEAE: Dysgeusia: 0 n (%)
  TEAE: Dyspepsia: 1 (25.0) n (%)
  TEAE: Dyspnoea: 0 n (%)
  TEAE: Dysuria: 0 n (%)
  TEAE: Eructation: 0 n (%)
  TEAE: Fall: 1 (25.0) n (%)
  TEAE: Fatigue: 1 (25.0) n (%)
  TEAE: Flatulence: 0 n (%)
  TEAE: Fracture: 0 n (%)
  TEAE: Fungal Infection: 0 n (%)
  TEAE: Haematoma: 0 n (%)
  TEAE: Hot Flush: 1 (25.0) n (%)
  TEAE: Hyperglycaemia: 0 n (%)
  TEAE: Hyperhidrosis: 1 (25.0) n (%)
  TEAE: Hypokalaemia: 0 n (%)
  TEAE: Hypotension: 0 n (%)
  TEAE: Influenza Like Illness: 0 n (%)
  TEAE: Insomnia: 1 (25.0) n (%)
  TEAE: Lower Respiratory Tract Congestion: 0 n (%)
  TEAE: Lymphocyte Count Decreased: 0 n (%)
  TEAE: Muscle Spasm: 0 n (%)
  TEAE: Muscular Weakness: 0 n (%)
  TEAE: Musculoskeletal Stiffness: 0 n (%)
  TEAE: Nail Disorder: 0 n (%)
  TEAE: Nasal Congestion: 0 n (%)
  TEAE: Nausea: 1 (25.0) n (%)
  TEAE: Neutrophil Count Decreased: 1 (25.0) n (%)
  TEAE: Oedema Peripheral: 0 n (%)
  TEAE: Ophthalmic Migraine: 0 n (%)
  TEAE: Oral Pain: 0 n (%)
  TEAE: Pain In Extremity: 0 n (%)
  TEAE: Pharyngitis: 0 n (%)
  TEAE: Platelet Count Decreased: 0 n (%)
  TEAE: Pleural Effusion: 0 n (%)
  TEAE: Pneumonia: 1 (25.0) n (%)
  TEAE: Productive Cough: 0 n (%)
  TEAE: Rash Maculo-Papular: 1 (25.0) n (%)
  TEAE: Rhinitis Allergic: 0 n (%)
  TEAE: Rib Fracture: 1 (25.0) n (%)
  TEAE: Seizure: 0 n (%)
  TEAE: Sepsis: 0 n (%)
  TEAE: Tremor: 1 (25.0) n (%)
  TEAE: Upper Respiratory Tract Infection: 1 (25.0) n (%)
  TEAE: Urinary Tract Infection: 0 n (%)
  TEAE: Vaginal Haemorrhage: 0 n (%)
  TEAE: Vomiting: 0 n (%)
  related TEAE: Alopecia: 0 n (%)
  related TEAE: Arthralgia: 0 n (%)
  related TEAE: Constipation: 0 n (%)
  related TEAE: Diarrhea: 1 (25.0) n (%)
  related TEAE: Dysgeusia: 0 n (%)
  related TEAE: Eructation: 0 n (%)
  related TEAE: Fatigue: 0 n (%)
  related TEAE: Flatulence: 0 n (%)
  related TEAE: Hot Flush: 1 (25.0) n (%)
  related TEAE: Hyperhidrosis: 0 n (%)
  related TEAE: Nail Disorder: 0 n (%)
  related TEAE: Nausea: 1 (25.0) n (%)
  related TEAE: Neutrophil Count Decreased: 1 (25.0) n (%)
  related TEAE: Platelet Count Decreased: 0 n (%)
  related TEAE: Tremor: 1 (25.0) n (%)
  related TEAE: Vomiting: 0 n (%)
200 mg QD (N = 12)
  Patients with Any Compound (1-g) related TEAE: 3 (25.0) n (%)
  Patients with Any TEAE: 11 (91.7) n (%)
  TEAE: Abdominal Distension: 0 n (%)
  TEAE: Abdominal Pain: 1 (8.3) n (%)
  TEAE: Acute Kidney Injury: 0 n (%)
  TEAE: Adrenal Insufficiency: 1 (8.3) n (%)
  TEAE: Alopecia: 0 n (%)
  TEAE: Anaemia: 1 (8.3) n (%)
  TEAE: Anxiety: 0 n (%)
  TEAE: Arthralgia: 2 (16.7) n (%)
  TEAE: Axillary Vein Thrombosis: 1 (8.3) n (%)
  TEAE: Back Pain: 1 (8.3) n (%)
  TEAE: Basal Cell Carcinoma: 0 n (%)
  TEAE: Breast Pain: 1 (8.3) n (%)
  TEAE: Confusional State: 0 n (%)
  TEAE: Constipation: 1 (8.3) n (%)
  TEAE: Cough: 1 (8.3) n (%)
  TEAE: Covid-19 Pneumonia: 0 n (%)
  TEAE: Dehydration: 1 (8.3) n (%)
  TEAE: Diarrhoea: 0 n (%)
  TEAE: Dizziness: 0 n (%)
  TEAE: Dysgeusia: 0 n (%)
  TEAE: Dyspepsia: 0 n (%)
  TEAE: Dyspnoea: 1 (8.3) n (%)
  TEAE: Dysuria: 1 (8.3) n (%)
  TEAE: Eructation: 0 n (%)
  TEAE: Fall: 1 (8.3) n (%)
  TEAE: Fatigue: 2 (16.7) n (%)
  TEAE: Flatulence: 0 n (%)
  TEAE: Fracture: 1 (8.3) n (%)
  TEAE: Fungal Infection: 0 n (%)
  TEAE: Haematoma: 0 n (%)
  TEAE: Hot Flush: 1 (8.3) n (%)
  TEAE: Hyperglycaemia: 1 (8.3) n (%)
  TEAE: Hyperhidrosis: 1 (8.3) n (%)
  TEAE: Hypokalaemia: 1 (8.3) n (%)
  TEAE: Hypotension: 0 n (%)
  TEAE: Influenza Like Illness: 1 (8.3) n (%)
  TEAE: Insomnia: 1 (8.3) n (%)
  TEAE: Lower Respiratory Tract Congestion: 1 (8.3) n (%)
  TEAE: Lymphocyte Count Decreased: 1 (8.3) n (%)
  TEAE: Muscle Spasm: 0 n (%)
  TEAE: Muscular Weakness: 1 (8.3) n (%)
  TEAE: Musculoskeletal Stiffness: 1 (8.3) n (%)
  TEAE: Nail Disorder: 0 n (%)
  TEAE: Nasal Congestion: 1 (8.3) n (%)
  TEAE: Nausea: 1 (8.3) n (%)
  TEAE: Neutrophil Count Decreased: 1 (8.3) n (%)
  TEAE: Oedema Peripheral: 0 n (%)
  TEAE: Ophthalmic Migraine: 1 (8.3) n (%)
  TEAE: Oral Pain: 0 n (%)
  TEAE: Pain In Extremity: 1 (8.3) n (%)
  TEAE: Pharyngitis: 1 (8.3) n (%)
  TEAE: Platelet Count Decreased: 0 n (%)
  TEAE: Pleural Effusion: 0 n (%)
  TEAE: Pneumonia: 1 (8.3) n (%)
  TEAE: Productive Cough: 1 (8.3) n (%)
  TEAE: Rash Maculo-Papular: 1 (8.3) n (%)
  TEAE: Rhinitis Allergic: 0 n (%)
  TEAE: Rib Fracture: 0 n (%)
  TEAE: Seizure: 1 (8.3) n (%)
  TEAE: Sepsis: 1 (8.3) n (%)
  TEAE: Tremor: 0 n (%)
  TEAE: Upper Respiratory Tract Infection: 1 (8.3) n (%)
